# Test results taken from patent US12097202B2 (Kadmon Corporation, LLC, priority 2022, dated 2024).
# Key:
# human serum albumin = human serum albumin (Homo sapiens, UniProt P02768); assay: In vitro protein binding, human serum albumin; format: in vitro ADME
# CYP2D6 [1] = target: T1, CYP2D6 (Homo sapiens, UniProt P10635); assay: In vitro metabolism by CYP2D6; format: in vitro ADME
# pregnant rabbits = settings: female, rabbit, in vivo, po
# OATP1B1 = target: T2, OATP1B1 (Homo sapiens, UniProt Q9Y6L6); assay: In vitro transporter study, OATP1B1; format: in vitro ADME; settings: at clinically relevant concentrations
# T2 sequence (Q9Y6L6 1-691): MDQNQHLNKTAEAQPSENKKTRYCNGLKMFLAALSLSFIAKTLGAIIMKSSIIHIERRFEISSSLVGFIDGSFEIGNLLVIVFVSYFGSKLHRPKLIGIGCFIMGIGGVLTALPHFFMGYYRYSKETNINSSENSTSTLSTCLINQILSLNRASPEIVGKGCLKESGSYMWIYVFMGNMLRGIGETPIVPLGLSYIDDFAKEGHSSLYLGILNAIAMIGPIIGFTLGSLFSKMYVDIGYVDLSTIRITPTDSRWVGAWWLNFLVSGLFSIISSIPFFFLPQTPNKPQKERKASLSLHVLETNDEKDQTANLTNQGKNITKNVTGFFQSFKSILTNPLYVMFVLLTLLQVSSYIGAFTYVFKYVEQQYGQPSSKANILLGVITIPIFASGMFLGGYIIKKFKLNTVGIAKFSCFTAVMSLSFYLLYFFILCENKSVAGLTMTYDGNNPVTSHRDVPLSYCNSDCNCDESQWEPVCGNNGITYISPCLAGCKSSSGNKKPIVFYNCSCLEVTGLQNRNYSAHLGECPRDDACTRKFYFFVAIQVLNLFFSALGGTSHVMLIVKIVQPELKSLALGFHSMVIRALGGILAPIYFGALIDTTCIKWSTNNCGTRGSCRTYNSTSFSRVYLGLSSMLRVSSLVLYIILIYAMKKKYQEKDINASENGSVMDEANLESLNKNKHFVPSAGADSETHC
# CYP2D6 [2] = target: T1, CYP2D6; assay: In vitro enzyme inhibition, CYP2D6; format: in vitro ADME
# pregnant rats = assay: Embryo-fetal development studies in rats; format: in vivo, rat; settings: oral, organogenesis, pilot study
# Protocol: In the pilot study, maternal toxicity and embryo-fetal developmental effects were observed. Maternal toxicity (reduced body weight gain) occurred at 150 and 300 mg/kg/day doses. Increased post-implantation loss occurred at 50 and 300 mg/kg/day.
# P-gp = P-gp (Homo sapiens, UniProt P08183); assay: In vitro transporter study, P-gp; format: in vitro ADME
# Sequence of P-gp (P08183 whole entry): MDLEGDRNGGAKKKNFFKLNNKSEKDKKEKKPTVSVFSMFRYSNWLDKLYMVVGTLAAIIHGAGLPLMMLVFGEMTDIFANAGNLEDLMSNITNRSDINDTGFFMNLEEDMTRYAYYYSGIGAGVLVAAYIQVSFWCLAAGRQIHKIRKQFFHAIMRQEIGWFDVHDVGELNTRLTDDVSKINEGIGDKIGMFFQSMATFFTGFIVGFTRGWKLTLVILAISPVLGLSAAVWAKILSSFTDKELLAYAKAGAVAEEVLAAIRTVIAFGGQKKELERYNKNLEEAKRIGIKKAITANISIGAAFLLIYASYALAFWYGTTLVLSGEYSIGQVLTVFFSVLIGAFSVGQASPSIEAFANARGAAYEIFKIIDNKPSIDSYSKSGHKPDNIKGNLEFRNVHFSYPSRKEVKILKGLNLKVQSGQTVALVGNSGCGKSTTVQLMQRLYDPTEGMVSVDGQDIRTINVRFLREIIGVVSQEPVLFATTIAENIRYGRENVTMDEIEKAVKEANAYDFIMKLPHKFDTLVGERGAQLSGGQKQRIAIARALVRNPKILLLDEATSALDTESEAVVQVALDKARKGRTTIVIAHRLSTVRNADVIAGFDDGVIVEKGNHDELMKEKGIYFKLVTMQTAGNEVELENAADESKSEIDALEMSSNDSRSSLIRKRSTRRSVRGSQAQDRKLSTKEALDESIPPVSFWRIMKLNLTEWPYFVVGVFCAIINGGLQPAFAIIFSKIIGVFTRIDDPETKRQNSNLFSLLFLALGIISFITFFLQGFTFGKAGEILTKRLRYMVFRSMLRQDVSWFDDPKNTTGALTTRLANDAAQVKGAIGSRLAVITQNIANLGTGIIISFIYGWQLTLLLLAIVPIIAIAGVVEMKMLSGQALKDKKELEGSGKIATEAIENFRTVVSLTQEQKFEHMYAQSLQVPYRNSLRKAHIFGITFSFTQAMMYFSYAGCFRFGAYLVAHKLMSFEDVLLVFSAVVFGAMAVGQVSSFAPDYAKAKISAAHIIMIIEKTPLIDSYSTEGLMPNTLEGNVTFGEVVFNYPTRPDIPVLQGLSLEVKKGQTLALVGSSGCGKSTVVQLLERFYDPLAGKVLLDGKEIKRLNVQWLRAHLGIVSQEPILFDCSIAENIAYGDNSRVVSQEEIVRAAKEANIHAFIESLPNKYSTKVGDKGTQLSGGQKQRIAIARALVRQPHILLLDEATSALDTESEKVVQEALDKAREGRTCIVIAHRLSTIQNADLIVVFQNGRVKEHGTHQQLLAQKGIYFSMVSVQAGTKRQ
# CYP3A4 = CYP3A4 (Homo sapiens, UniProt P08684); assay: In vitro metabolism by CYP3A4; format: in vitro ADME
# Sequence of CYP3A4 (P08684 whole entry): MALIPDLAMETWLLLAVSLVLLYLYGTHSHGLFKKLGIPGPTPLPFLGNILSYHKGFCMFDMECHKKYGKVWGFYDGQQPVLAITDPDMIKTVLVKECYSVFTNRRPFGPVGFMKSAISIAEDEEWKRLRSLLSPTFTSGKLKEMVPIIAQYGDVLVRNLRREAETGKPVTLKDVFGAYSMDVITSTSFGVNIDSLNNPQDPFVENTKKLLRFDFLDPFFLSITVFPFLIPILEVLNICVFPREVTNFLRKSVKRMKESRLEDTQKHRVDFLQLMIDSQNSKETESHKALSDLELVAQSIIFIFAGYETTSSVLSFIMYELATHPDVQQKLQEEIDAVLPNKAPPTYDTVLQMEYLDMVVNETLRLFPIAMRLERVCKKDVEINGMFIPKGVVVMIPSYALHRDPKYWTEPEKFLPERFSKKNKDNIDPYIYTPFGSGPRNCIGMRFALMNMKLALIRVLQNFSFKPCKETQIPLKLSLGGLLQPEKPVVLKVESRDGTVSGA
# T1 sequence (P10635 whole entry): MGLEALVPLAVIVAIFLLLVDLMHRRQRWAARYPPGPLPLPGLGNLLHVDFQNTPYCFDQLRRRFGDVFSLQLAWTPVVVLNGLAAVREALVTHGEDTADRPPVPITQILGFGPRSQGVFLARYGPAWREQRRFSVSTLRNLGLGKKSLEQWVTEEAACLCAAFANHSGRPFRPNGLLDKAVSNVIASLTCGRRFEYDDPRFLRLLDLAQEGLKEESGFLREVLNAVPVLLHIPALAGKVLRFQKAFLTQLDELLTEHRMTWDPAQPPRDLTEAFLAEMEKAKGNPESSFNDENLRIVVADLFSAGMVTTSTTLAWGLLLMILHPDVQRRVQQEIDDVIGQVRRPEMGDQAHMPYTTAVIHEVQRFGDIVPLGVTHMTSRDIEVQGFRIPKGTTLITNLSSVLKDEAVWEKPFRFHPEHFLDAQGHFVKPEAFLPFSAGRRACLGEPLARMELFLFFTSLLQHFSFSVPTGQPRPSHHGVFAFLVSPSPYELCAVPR
# Sequence of human serum albumin (P02768 25-609): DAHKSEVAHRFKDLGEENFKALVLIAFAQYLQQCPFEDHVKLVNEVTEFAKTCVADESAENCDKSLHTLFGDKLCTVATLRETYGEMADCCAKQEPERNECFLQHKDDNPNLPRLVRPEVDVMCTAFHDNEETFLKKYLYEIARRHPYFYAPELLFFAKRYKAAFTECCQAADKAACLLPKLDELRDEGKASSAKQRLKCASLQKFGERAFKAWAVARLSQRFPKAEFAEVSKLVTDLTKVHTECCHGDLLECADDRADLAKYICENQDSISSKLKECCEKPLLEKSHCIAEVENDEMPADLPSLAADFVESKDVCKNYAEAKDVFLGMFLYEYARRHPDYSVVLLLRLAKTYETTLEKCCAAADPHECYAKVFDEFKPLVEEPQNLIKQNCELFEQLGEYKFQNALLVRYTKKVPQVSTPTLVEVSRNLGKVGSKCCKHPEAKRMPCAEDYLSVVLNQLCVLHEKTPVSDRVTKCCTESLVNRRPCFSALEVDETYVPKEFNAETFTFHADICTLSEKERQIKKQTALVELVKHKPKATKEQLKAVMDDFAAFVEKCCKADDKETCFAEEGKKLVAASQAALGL
structure (smiles),measurement,setting,value
"CC(C)NC(=O)COc1cccc(-c2nc(Nc3ccc4[nH]ncc4c3)c3ccccc3n2)c1 [belumosudil, 2-{3-[4-(1H-indazol-5-ylamino)-2-quinazolinyl]phenoxy}-N-(propan-2-yl) acetamide]",binding to human serum albumin,human serum albumin,99.9%
same,metabolism by CYP2D6,CYP2D6 [1],to a lesser extent
same,doses at which embryo-fetal effects were observed,pregnant rabbits,≥ 50 mg/kg/day
same,doses at which maternal toxicity (body weight loss and mortality) was observed,pregnant rabbits,≥ 125 mg/kg/day
same,inhibition of OATP1B1,OATP1B1,inhibits
same,inhibition of CYP2D6,CYP2D6 [2],inhibitor
same,doses at which fetal malformations were observed,pregnant rats,≥ 50 mg/kg/day
same,P-gp substrate status,P-gp,substrate of P-gp
same,inhibition of P-gp,P-gp; at clinically relevant concentrations,inhibits
same,metabolism by CYP3A4,CYP3A4,primarily metabolized
